# pEC50: −log10 of the molar value.
# Columns and labels:
# [1] = molecular target: T1, human FXR alpha ligand binding domain (Homo sapiens, UniProt Q96RI1); experiment: FRET activity assay (ligand mediated cofactor peptide interaction, LANCE); format: biochemical; conditions: GST-FXR-LBD / biotinylated SRC-1 peptide (676-700), read-out: F EC50
# T1 construct: made in house; host or cells: E. coli BL21(DE3), vector pDEST15
# T1 sequence (Q96RI1 187-472 isoform Q96RI1-2): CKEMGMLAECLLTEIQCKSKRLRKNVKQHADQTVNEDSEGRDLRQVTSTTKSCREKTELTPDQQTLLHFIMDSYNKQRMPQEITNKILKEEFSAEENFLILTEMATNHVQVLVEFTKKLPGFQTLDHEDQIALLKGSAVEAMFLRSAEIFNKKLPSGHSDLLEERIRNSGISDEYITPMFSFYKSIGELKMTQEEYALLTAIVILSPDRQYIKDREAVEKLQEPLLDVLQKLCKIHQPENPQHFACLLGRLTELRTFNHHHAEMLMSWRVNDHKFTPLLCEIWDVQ
# How it was run: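 GST-tagged FXR LBD (aa 187–472, E. coli-expressed) at 20–60 ng/well with 200–600 nM biotinylated SRC-1 peptide (676–700), streptavidin-APC and Eu anti-GST in Tris pH 7.5 buffer, 1% DMSO, equilibrated 1 h dark at room temperature. TR-FRET read as 665/615 nm ratio; agonists raise signal above basal.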
# [2] = molecular target: T2, FXR ligand binding domain (Homo sapiens, UniProt Q96RI1); experiment: Mammalian One Hybrid (M1H) assay, Gal4 promoter driven transactivation in HEK293 cells; format: cell-based; conditions: Gal4-FXR-LBD luciferase reporter, 16 h
# T2 construct: expressed in transfected cells; host or cells: HEK293 cells, transiently transfected with pCMV-BD-FXR-LBD, pFR-Luc and pRL-CMV
# T2 sequence (Q96RI1 187-472 isoform Q96RI1-2): T1 sequence (Q96RI1 187-472 isoform Q96RI1-2)
# How it was run: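 HEK293 cells were transiently co-transfected with Gal4-DBD fused to the human FXR LBD (aa 187-472, NM_005123), a 5×GAL4-site firefly luciferase reporter and CMV-Renilla control. Compounds were added 2-4 h post-transfection (vehicle ≤0.1%) in charcoal/dextran-stripped FBS medium for 16 h. Firefly and Renilla luciferase were read sequentially, in triplicate.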
compound,measurement,setting,value
"Cc1onc(-c2c(Cl)cccc2Cl)c1CO[C@H]1C[C@H]2CC[C@@H](C1)[C@]2(O)c1nc2ccc(C(=O)O)cc2s1 [Example 11-38, 2-((1R,3r,5S,8r)-3-((3-(2,6-Dichlorophenyl)-5-methylisoxazol-4-yl)methoxy)-8-hydroxybicyclo[3.2.1]octan-8-yl)benzo[d]thiazole-6-carboxylic acid]",pEC50,[1],6.57
same,pEC50,[2],6.34
"O=C(O)c1cc(F)c2nc([C@]3(O)CC[C@@H](OCc4c(-c5ccccc5OC(F)F)noc4C4CC4)CC3)sc2c1 [Example 11-7, 2-((1s,4s)-4-((5-Cyclopropyl-3-(2-(difluoromethoxy)phenyl)isoxazol-4-yl)methoxy)-1-hydroxycyclohexyl)-4-fluorobenzo[d]thiazole-6-carboxylic acid]",pEC50,[1],6.82
same,pEC50,[2],5.89
"O=C(O)c1ccc2nc([C@]3(O)CC[C@@H](OCc4c(-c5ccccc5C(F)F)noc4C4CC4)CC3)sc2c1 [Example 11-15, 2-((1s,4s)-4-((5-Cyclopropyl-3-(2-(difluoromethyl)phenyl)isoxazol-4-yl)methoxy)-1-hydroxycyclohexyl)benzo[d]thiazole-6-carboxylic acid]",pEC50,[1],5.82
same,pEC50,[2],5.66
"CC(C)(F)c1onc(-c2c(Cl)cccc2Cl)c1CO[C@@H]1C[C@H]2CC[C@@H](C1)[C@]2(O)c1nc2c(F)cc(C(=O)O)cc2s1 [Example 11-52, 2-((1R,3s,5S,8r)-3-((3-(2,6-Dichlorophenyl)-5-(2-fluoropropan-2-yl)isoxazol-4-yl)methoxy)-8-hydroxybicyclo[3.2.1]octan-8-yl)-4-fluorobenzo[d]thiazole-6-carboxylic acid]",pEC50,[1],8.31
same,pEC50,[2],8.72
"O=C(O)c1ccnc2ccc([C@]3(O)CC[C@@H](OCc4c(-c5c(Cl)cccc5Cl)noc4C4CC4)CC3)cc12 [Example 30, 6-((1s,4s)-4-((5-Cyclopropyl-3-(2,6-dichlorophenyl)isoxazol-4-yl)methoxy)-1-hydroxycyclohexyl)quinoline-4-carboxylic acid]",pEC50,[1],6.72
same,pEC50,[2],< 5.52
"O=C(O)c1ccc(C2(O)C[C@H]3CC(OCc4c(-c5c(Cl)cccc5Cl)noc4C4CC4)C[C@H]3C2)c(F)c1 (stereo partly drawn) [Example 11-47, 4-((3aR,6aS)-5-((5-Cyclopropyl-3-(2,6-dichlorophenyl)isoxazol-4-yl)methoxy)-2-hydroxyoctahydropentalen-2-yl)-3-fluorobenzoic acid]",pEC50,[1],7.92
same,pEC50,[2],7.00

# Source: patent publication US9751874B2, “Hydroxy containing FXR (NR1H4) modulating compounds” (Gilead Sciences, Inc., priority 2014, dated 2017)
